From patent US7361664B2, “Vitamin D receptor antagonists and related compositions and methods of use” (The United States of America as represented by the …, priority 2001, dated 2008) come the findings set out here.

Series [1] relates to MCF-7 cells. Briefly: [3H]-Thymidine incorporation assay. The class given is cell-based, human. Conditions: for effect on MCF-7 cell proliferation ([3H]-thymidine incorporation): 3 days treatment, FIG. 2 and 3. As for the experimental part:
MCF-7 cells (10,000 cells/well) were subcultured in 24 well plates and treated with hormone for 3 days in graded concentrations (FIG. 2). For the last 12 hours, [^3H]-thymidine (0.5 μCi/well) was added to cells. Cells were treated with TCA (20% for 15 minutes, twice with 10% for 3 minutes, and ethanol for 3 minutes). Acid-insoluble material was dissolved in 1 N NaOH, then neutralized with 1 N HCl. Radioactivity was measured by liquid scintillation counting. Data were expressed as radioactivity (% of control). The control was cells treated with vehicle (0.1% ethanol). […] Anti-proliferative effects of BCA11 and calcitriol were additive.
A general note: Incorporation of labelled thymidine or its analogues reports DNA synthesis.

Series [2] has as its system BT20 cells. The series is described as follows: Growth of estrogen receptor-negative breast cancer in vivo. The arrangement: species or system athymic nude mice. The procedure: BT20 cells (estrogen receptor-negative, human breast cancer cells; 5 million) were injected with Matrigel (10 mg/ml) into each flank of 10 weeks old female athymic nude mice. Mice were maintained on a low-calcium diet (0.4% Ca, 0.3% P and no vitamin D; Harlan Teklad). Then, mice bearing equal number and size tumors were randomly selected for treatment groups. […] Treatment groups received 1.5 μg/kg BCA11 at approximately 21 days after injection of cells. Control groups received vehicle (25% propylene glycol and 75% saline). Drugs or vehicle were injected i.p. three times per week. Tumor growth was monitored biweekly with caliper measurements. […] (Biochem. Pharmacol. (1992)). […] After about four weeks, the mice were divided into treatment and control groups. […] Control groups received vehicle (25% propylene glycol and 75% saline). Drugs or vehicle were injected i.p. three times per week. Tumor growth was monitored biweekly with caliper measurements. Tumor volumes were calculated as indicated in Example 7.

The nature of series [3]: Serum calcium and toxicity with chronic in vivo administration. The arrangement: species or system athymic nude mice. Conditions: 1 μg/kg alternate days, 5 weeks, FIG. 7. As for the experimental part:
MCF-7 cells were injected with Matrigel (10 mg/ml) into 7 weeks old female athymic nude mice. Tumors were grown in the presence of implanted estrogen pellets (0.72 mg pellets). After four weeks inoculation, mice were treated for 5 weeks with hormones or vehicle (propylene glycol) control on alternate days. BCA11 and EB1089 were added at a concentration of 1 μg/kg. Serum was drawn throughout hormone treatment from the orbital vein of the mice and assayed by the Department of Clinic Chemistry, National Institutes of Health, by methods well-known in the art. […] Similar results were obtained from multiple blood samples taken from the phase II study. Calcium and phosphorous levels were assayed by Ani Lytics and fell within normal ranges. In addition, alkaline phosphatase, albumin, bilirubin and creatinine levels were measured in both phases.

Series [4] concerns MCF-7 cells. The series is described as follows: In vivo inhibition of advanced stage tumor growth. The arrangement: species or system athymic nude mice. Conditions: 2 mg/kg on alternate days, day 35, estrogen pellets. As for the experimental part:
MCF-7 cells were injected with Matrigel (10 mg/ml) into 7 weeks old female athymic nude mice (10 mice/treatment group). Tumors were grown in the presence of implanted estrogen pellets (0.72 mg pellets). Four weeks after inoculation, mice were treated for 5 weeks with hormones or vehicle (propylene glycol) on alternate days. BCA11 was added at a concentration of 1 μg/kg and Tamoxifen was added at a concentration of 2 mg/kg.

Series [5] concerns BT20 cells. Briefly: Effect of dietary vitamin D on BT20 tumor growth. The class given is in vivo, athymic nude mice. Conditions: for tumor weight: day 69. The procedure: BT20 cells (estrogen receptor-negative, human breast cancer cells; 5 million) were injected with Matrigel (10 mg/ml) into each flank of 10 weeks old female athymic nude mice. Tumor growth was monitored for six weeks on a low-calcium diet (0.4% Ca, 0.3% P and no vitamin D; Harlan Teklad). Then, mice bearing equal number and size tumors were randomly selected for treatment groups. One group continued on the low-calcium diet (serum 25-OH-D3 approx. 2 pg/ml) and received vehicle and the other group was placed on a normal diet (1.19% Ca, 0.86% P, and 6.6 mg/kg vitamin D; serum 25-OH-D3 approx. 18 pg/ml) and received vehicle.
Six weeks old female athymic mice were placed on diets of 0.5% Ca, 0.3% P, and either no vitamin D (serum 25-OH-D3 approx. 3 pg/ml; serum calcitriol approx. 30 pg/ml) or vitamin D (4 mg/kg (serum 25-OH-D3 approx. 34 pg/ml; serum calcitriol approx. […]) or 40 mg/kg (serum 25-OH-D3 approx. 73 pg/ml; serum calcitriol approx. 70 pg/ml)). Two weeks later, BT20 cells (5 million) were injected with Matrigel (10 mg/ml) into each flank and tumor growth was monitored in the absence of drug treatment.

Turning to `C[C@]12CC[C@@H]3c4ccc(O)cc4CC[C@H]3[C@@H]1CC[C@@H]2O` [17β Estradiol], in the series with MCF-7 cells [1], the “effect on MCF-7 cell proliferation ([3H]-thymidine incorporation)” value was “stimulate cell growth”.
Take `C=C1/C(=C\C=C2/CCC[C@]3(C)[C@@H]([C@H](C)CCCC(C)(C)O)CC[C@@H]23)C[C@@H](O)C[C@@H]1O` [Calcitriol, 1,25-dihydroxycholecalciferol]: in the series on MCF-7 cells [1] (10 nM of each hormone), the “[3H]-Thymidine Incorporation MCF-7 cells (% of Control)” value is listed as 67 ± 8 % of Control. In the series on MCF-7 cells [1], the “effect on MCF-7 cell proliferation ([3H]-thymidine incorporation)” value was “stimulate cell growth”.
`C=C1/C(=C\C=C2/CCC[C@]3(C)[C@@H]([C@H](C)/C=C/C=C/C(O)(CC)CC)CC[C@@H]23)C[C@@H](O)C[C@@H]1O` [EB1089] came in with a tumor weight in the series on BT20 cells [2] (1.0 μg/kg, day 69) of roughly 0.07 g. In the series on BT20 cells [2] (i.p. three times per week, around 60 days of treatment, 4 mg/kg vitamin D diet), the tumor volume result is recorded as “approximately 14 mm^3”. Besides, in series [3], the serum calcium levels result is “fell within the normal range of physiological calcium”.
Regarding `CC/C(=C(\c1ccccc1)c1ccc(OCCN(C)C)cc1)c1ccccc1` [Tamoxifen], the “inhibition of tumor growth (tumor volume) compared to control” value in the series with MCF-7 cells [4] is given as “about 50%”.
For vitamin D, the tumor volume result is recorded as “approximately 12.5 mm^3” in the series on BT20 cells [5] (diet with 4 mg/kg vitamin D, 36 days after injection of BT20 cells); “approximately 9.5 mm^3” with BT20 cells [5] (diet with 40 mg/kg vitamin D, 36 days after injection of BT20 cells); “approx. 37 mm^3” with BT20 cells [5] (normal diet with 6.6 mg/kg vitamin D, 41 days after inoculation). Besides, the tumor weight entry with BT20 cells [5] (diet with 4 mg/kg vitamin D) is recorded as “approximately 0.3 g”; in the series on BT20 cells [5] (diet with 40 mg/kg vitamin D), “approximately 0.19 g”.
